This assay has as its target T1, hCaV2.2 (Homo sapiens, UniProt Q00975).
T1 construct: expressed in transfected cells; plasmids pCIN5-hCaV2.2, pCIH-hCaV β3, pCIP-α2δ1
Description: hCaV2.2 assay, IonWorks planar array electrophysiology in stably transfected HEK293 cells. The format is cell-based. The conditions noted are these: current elicited by the 1st depolarising pulse inhibited by 50%; HEK293 cells expressing human CaV2.2 alpha/beta3/alpha2delta1; read-out: mean pIC50 (tonic pIC50) (converted). Here is the method:
Compounds of the invention may be tested for in vitro biological activity in the hCaV2.2 assay in accordance with the following studies:
Stable cell lines expressing the human CaV2.2 α (als) subunit, along with the human […] and α2δ1 auxiliary subunits were created following sequential transfection and selection of human embryonic kidney (HEK293) cells. HEK293 cells were cultured in Dulbecco's modified Eagles media/F12 media (Invitrogen, Cat #041-95750V) containing 10% foetal bovine serum, with added L-glutamine (2 mM; Invitrogen, Cat #25030-024) and non-essential amino acids (5%; Invitrogen, Cat #11140-035). Initially HEK293 cells were transfected with two plasmid vectors for expression of the hCaV2.2 α subunit (pCIN5-hCaV2.2 which carries a neomycin resistance marker) and the hCaV β3 subunit (pCIH-hCaV β3 which carries a hygromycin resistance marker). Clonal cell lines were isolated following selection in media supplemented with 0.4 mg ml^−1 Geneticin G418 (Invitrogen, Cat #10131-027) and 0.1 mg ml^1 hygromycin (Invitrogen, Cat #10687-010). These clonal cell lines were assessed for Cav2.2α/β3-mediated current expression using the IonWorks planar array electrophysiology technology (described below). A clonal line was identified that gave a reasonable level of functional Cav2.2α/β3 current expression. This cell line was transfected with a plasmid vector for expression of the human […] subunit (pCIP-α2δ1 which carries a puromycin resistance marker) and clonal cell lines isolated following selection in media containing 0.62 μg ml^−1 puromycin (Sigma, Cat #P-7255), in addition to 0.4 mg ml^−1 Geneticin G418 and 0.1 mg ml^−1 hygromycin. Several cell lines were identified that gave robust levels of Cav2.2α/β3/α2δ1-mediated current expression and one of these was selected for compound profiling. Expression of all three subunits within this cell line was continuously maintained by the inclusion of G418 (0.4 mg ml^−1), hygromycin (0.1 mg ml^−1) and puromycin (0.62 μg ml^−1). Cells were maintained at 37° C. in a humidified environment containing 5% CO2 in air. Cells were liberated from the T175 culture flasks for passage and harvesting using TrpLE (Invitrogen, Cat #12604-013).
Cells were grown to 30-60% confluence in T175 flasks and maintained at 30° C. for 24 hrs prior to recording. Cells were lifted by removing the growth media, washing with Ca^2+ free PBS (Invitrogen, Cat #14190-094) and incubating with 3 ml of warmed (37° C.) TrpLE (Invitrogen, Cat #12604-013) for 6 minutes. Lifted cells were suspended in 10 ml of extracellular buffer. Cell suspension was then placed into a 15 ml tube and centrifuged for 2 minutes at 700 rpm. After centrifugation, the supernatant was removed and the cell pellet was resuspended in 4.5 ml of extracellular solution.
Currents were recorded at room temperature (21-23° C.) using the IonWorks planar array electrophysiology technology (Molecular Devices Corp.). Stimulation protocols and data acquisition were carried out using a microcomputer (Dell Pentium 4). In order to determine planar electrode hole resistances (Rp), a 10 mV, 160 ms potential difference was applied across each hole. These measurements were performed before cell addition. After cell addition a seal test was performed prior to antibiotic (amphotericin) circulation to achieve intracellular access. Leak subtraction was conducted in all experiments by applying a 160 ms hyperpolarizing (10 mV) prepulse 200 ms before the test pulses to measure leak conductance. Test pulses stepping from the holding potential (VH) of −90 mV to +10 mV were applied for 20 ms and repeated 10 times at a frequency of 10 Hz. In all experiments, the test pulse protocol was performed in the absence (pre-read) and presence (post-read) of a compound. Pre- and post-reads were separated by a compound addition followed by a 3-3.5 min incubation.
The intracellular solution contained the following (in mM): K-gluconate 120, KCl 20 mM, MgCl2 5, EGTA 5, HEPES 10, adjusted to pH 7.3. […]
On the technique in general: Patch clamp records ionic current or voltage across a cell membrane.

Structures can show the parent of a compound that is named as a salt.

T1 sequence (Q00975 whole entry): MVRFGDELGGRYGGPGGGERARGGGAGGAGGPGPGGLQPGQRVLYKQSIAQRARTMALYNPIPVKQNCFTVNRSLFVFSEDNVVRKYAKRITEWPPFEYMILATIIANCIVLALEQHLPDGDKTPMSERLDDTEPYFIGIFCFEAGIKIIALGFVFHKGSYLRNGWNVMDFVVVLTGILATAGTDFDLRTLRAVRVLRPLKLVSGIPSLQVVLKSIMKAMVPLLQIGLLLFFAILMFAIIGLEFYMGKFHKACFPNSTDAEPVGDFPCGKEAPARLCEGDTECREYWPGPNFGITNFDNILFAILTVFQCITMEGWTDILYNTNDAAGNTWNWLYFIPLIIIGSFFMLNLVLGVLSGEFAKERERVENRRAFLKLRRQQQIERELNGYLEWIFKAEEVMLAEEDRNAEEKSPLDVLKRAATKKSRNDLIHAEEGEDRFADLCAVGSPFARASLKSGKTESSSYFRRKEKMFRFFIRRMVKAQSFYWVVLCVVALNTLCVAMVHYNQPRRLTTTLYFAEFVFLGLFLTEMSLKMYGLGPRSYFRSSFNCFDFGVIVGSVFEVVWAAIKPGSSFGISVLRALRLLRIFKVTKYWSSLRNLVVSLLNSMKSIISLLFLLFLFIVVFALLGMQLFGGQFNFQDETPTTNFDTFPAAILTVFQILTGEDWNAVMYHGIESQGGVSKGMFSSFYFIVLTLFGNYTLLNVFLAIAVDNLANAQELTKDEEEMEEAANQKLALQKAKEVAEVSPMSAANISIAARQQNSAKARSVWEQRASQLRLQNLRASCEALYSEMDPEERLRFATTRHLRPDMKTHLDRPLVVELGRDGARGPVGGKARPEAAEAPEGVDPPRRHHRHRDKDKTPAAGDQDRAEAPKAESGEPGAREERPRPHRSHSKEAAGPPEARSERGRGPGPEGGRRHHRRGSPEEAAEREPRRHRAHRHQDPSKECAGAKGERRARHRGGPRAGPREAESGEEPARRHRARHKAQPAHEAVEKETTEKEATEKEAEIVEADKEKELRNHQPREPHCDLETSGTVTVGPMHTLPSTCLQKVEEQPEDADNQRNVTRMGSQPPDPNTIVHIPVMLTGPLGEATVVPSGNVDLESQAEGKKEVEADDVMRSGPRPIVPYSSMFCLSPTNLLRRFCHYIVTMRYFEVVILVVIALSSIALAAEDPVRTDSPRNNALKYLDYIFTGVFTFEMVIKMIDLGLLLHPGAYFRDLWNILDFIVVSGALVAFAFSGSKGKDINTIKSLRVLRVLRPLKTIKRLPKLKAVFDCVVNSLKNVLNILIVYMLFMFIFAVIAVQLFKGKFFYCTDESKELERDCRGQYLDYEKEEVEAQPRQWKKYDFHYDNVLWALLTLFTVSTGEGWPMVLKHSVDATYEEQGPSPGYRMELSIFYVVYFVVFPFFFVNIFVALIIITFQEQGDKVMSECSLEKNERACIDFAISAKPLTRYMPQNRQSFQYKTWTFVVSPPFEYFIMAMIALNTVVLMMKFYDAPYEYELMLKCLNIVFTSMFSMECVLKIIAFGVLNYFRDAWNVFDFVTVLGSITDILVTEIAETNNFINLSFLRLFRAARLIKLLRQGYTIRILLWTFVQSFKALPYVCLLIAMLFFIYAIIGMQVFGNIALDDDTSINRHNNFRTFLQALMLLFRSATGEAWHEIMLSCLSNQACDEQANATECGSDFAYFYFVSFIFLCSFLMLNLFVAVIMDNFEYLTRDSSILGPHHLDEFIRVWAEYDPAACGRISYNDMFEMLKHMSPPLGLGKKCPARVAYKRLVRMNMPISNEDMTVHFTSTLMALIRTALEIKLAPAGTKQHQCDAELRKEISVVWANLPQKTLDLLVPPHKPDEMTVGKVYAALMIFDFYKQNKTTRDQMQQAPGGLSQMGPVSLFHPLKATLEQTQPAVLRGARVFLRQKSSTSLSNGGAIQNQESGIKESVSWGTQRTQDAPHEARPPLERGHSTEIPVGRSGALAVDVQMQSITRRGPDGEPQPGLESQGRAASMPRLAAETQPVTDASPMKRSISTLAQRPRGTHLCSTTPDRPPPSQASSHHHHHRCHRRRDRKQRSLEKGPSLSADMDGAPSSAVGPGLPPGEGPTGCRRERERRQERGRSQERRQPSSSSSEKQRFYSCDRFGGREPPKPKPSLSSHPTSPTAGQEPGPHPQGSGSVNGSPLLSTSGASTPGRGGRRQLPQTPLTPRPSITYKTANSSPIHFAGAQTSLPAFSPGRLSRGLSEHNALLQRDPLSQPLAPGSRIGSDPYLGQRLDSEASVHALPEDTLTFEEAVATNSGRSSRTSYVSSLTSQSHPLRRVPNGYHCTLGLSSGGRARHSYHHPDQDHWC

Take `Cc1ccc(C(=O)N2CCN(S(=O)(=O)c3ccc(C(F)(F)F)cc3)C[C@@H]2C)cn1` [Example 1, (2S)-2-Methyl-1-[(6-methyl-3-pyridinyl)carbonyl]-4-{[4-(trifluoromethyl)phenyl]sulfonyl}piperazine]: the IC50 was ≥ 31.6 µM.

For `Cc1ncccc1C(=O)N1CCN(S(=O)(=O)c2ccc(C(F)(F)F)cc2)C[C@@H]1C` [Example 2, (2S)-2-Methyl-1-[(2-methyl-3-pyridinyl)carbonyl]-4-{[4-(trifluoromethyl)phenyl]sulfonyl}piperazine hydrochloride], the IC50 is ≥ 31.6 µM.

Take `O=C(c1cccnc1)N1CCN(S(=O)(=O)c2ccc(C(F)(F)F)cc2)CC1` [Example 3, 1-(3-Pyridinylcarbonyl)-4-{[4-(trifluoromethyl)phenyl]sulfonyl}piperazine]: the IC50 was ≥ 31.6 µM.

`Cc1ccc(C(=O)N2CCN(S(=O)(=O)c3ccc(C(F)(F)F)cc3)CC2)cn1` [Example 4, 1-[(6-Methyl-3-pyridinyl)carbonyl]-4-{[4-(trifluoromethyl)phenyl]sulfonyl}piperazine]: the IC50 is ≥ 31.6 µM.

For `Cc1ncccc1C(=O)N1CCN(S(=O)(=O)c2ccc(C(F)(F)F)cc2)CC1` [Example 5, 1-[(2-Methyl-3-pyridinyl)carbonyl]-4-{[4-(trifluoromethyl)phenyl]sulfonyl}piperazine], the IC50 is ≥ 31.6 µM.

Take `O=C(c1ccc(N2CCOCC2)nc1)N1CCN(S(=O)(=O)c2ccc(C(F)(F)F)cc2)CC1` [Example 6, 4-{5-[(4-{[4-(Trifluoromethyl)phenyl]sulfonyl}-1-piperazinyl)carbonyl]-2-pyridinyl}morpholine]: the IC50 is ≥ 31.6 µM.

On to `C[C@H]1CN(C(=O)c2ccc(N3CCOCC3)nc2)CCN1S(=O)(=O)c1ccc(Cl)cc1` [Example 7, 4-[5-({(3S)-4-[(4-Chlorophenyl)sulfonyl]-3-methyl-1-piperazinyl}carbonyl)-2-pyridinyl]morpholine], for which the IC50 is ≥ 31.6 µM.

Take `Cc1ccc(C(=O)N2CCN(S(=O)(=O)c3ccc(Cl)cc3)[C@@H](C)C2)cn1` [Example 8, (2S)-1-[(4-Chlorophenyl)sulfonyl]-2-methyl-4-[(6-methyl-3-pyridinyl)carbonyl]piperazine]: the IC50 was ≥ 31.6 µM.

As to `Cc1ccc(C(=O)N2CCN(S(=O)(=O)c3ccc(C(F)(F)F)cc3)[C@H](C)C2)cn1` [Example 9, (2R)-2-Methyl-4-[(6-methyl-3-pyridinyl)carbonyl]-1-{[4-(trifluoromethyl)phenyl]sulfonyl}piperazine formic acid salt], the IC50 was ≥ 31.6 µM.

For the compound `Cc1ncccc1C(=O)N1CCN(S(=O)(=O)c2ccc(C(F)(F)F)cc2)[C@H](C)C1` [Example 10, (2R)-2-Methyl-4-[(2-methyl-3-pyridinyl)carbonyl]-1-{[4-(trifluoromethyl)phenyl]sulfonyl}piperazine formic acid salt], the IC50 is ≥ 31.6 µM.

For `Cc1ccc(C(=O)N2CCN(S(=O)(=O)c3ccc(C(F)(F)F)cc3)[C@@H](C)C2)cn1` [Example 11, (2S)-2-Methyl-4-[(6-methyl-3-pyridinyl)carbonyl]-1-{[4-(trifluoromethyl)phenyl]sulfonyl}piperazine formic acid salt], the IC50 was ≥ 31.6 µM.

On to `Cc1ncccc1C(=O)N1CCN(S(=O)(=O)c2ccc(C(F)(F)F)cc2)[C@@H](C)C1` [Example 12, (2S)-2-Methyl-4-[(2-methyl-3-pyridinyl)carbonyl]-1-{[4-(trifluoromethyl)phenyl]sulfonyl}piperazine formic acid salt], for which the IC50 is ≥ 31.6 µM.

Take `C[C@H]1CN(S(=O)(=O)c2ccc(C(F)(F)F)cc2)CCN1C(=O)c1ccc(C#N)nc1` [Example 13, 5-[((2S)-2-Methyl-4-{[4-(trifluoromethyl)phenyl]sulfonyl}-1-piperazinyl)carbonyl]-2-pyridinecarbonitrile]: the IC50 is ≥ 31.6 µM.

`COc1ccc(C(=O)N2CCN(S(=O)(=O)c3ccc(C(F)(F)F)cc3)C[C@@H]2C)cn1` [Example 14, (2S)-2-Methyl-1-{[6-(methyloxy)-3-pyridinyl]carbonyl}-4-{[4-(trifluoromethyl)phenyl]sulfonyl}piperazine]: the IC50 was ≥ 31.6 µM.

`COc1ncccc1C(=O)N1CCN(S(=O)(=O)c2ccc(C(F)(F)F)cc2)C[C@@H]1C` [Example 15, (2S)-2-Methyl-1-{[2-(methyloxy)-3-pyridinyl]carbonyl}-4-{[4-(trifluoromethyl)phenyl]sulfonyl}piperazine]: the IC50 is ≥ 31.6 µM.

As for `Cc1cncc(C(=O)N2CCN(S(=O)(=O)c3ccc(C(F)(F)F)cc3)C[C@@H]2C)c1` [Example 16, (2S)-2-Methyl-1-[(5-methyl-3-pyridinyl)carbonyl]-4-{[4-(trifluoromethyl)phenyl]sulfonyl}piperazine], the IC50 was ≥ 31.6 µM.

Take `Cc1ccc(C(=O)N2CCN(S(=O)(=O)c3ccc(C#N)cc3C)C[C@@H]2C)cn1` [Example 17, 3-Methyl-4-({(3S)-3-methyl-4-[(6-methyl-3-pyridinyl)carbonyl]-1-piperazinyl}sulfonyl)benzonitrile]: the IC50 was ≥ 31.6 µM.

As for `Cc1ccncc1C(=O)N1CCN(S(=O)(=O)c2ccc(C(F)(F)F)cc2)C[C@@H]1C` [Example 18, (2S)-2-Methyl-1-[(4-methyl-3-pyridinyl)carbonyl]-4-{[4-(trifluoromethyl)phenyl]sulfonyl}piperazine], the IC50 was ≥ 31.6 µM.

On to `Cc1ccc(C(=O)N2CCN(S(=O)(=O)c3ccc(C(F)(F)F)cc3)C[C@H]2C)cn1` [Example 19, (2R)-2-methyl-1-[(6-methyl-3-pyridinyl)carbonyl]-4-{[4-(trifluoromethyl)phenyl]sulfonyl}piperazine formic acid salt (1:1)], for which the IC50 is ≥ 31.6 µM.

Regarding `Cc1ncccc1C(=O)N1CCN(S(=O)(=O)c2ccc(C(F)(F)F)cc2)C[C@H]1C` [Example 20, (2R)-2-methyl-1-[(2-methyl-3-pyridinyl)carbonyl]-4-{[4-(trifluoromethyl)phenyl]sulfonyl}piperazine formic acid salt (1:1)], the IC50 is ≥ 31.6 µM.

For `Cc1ccc(C(=O)N2CCN(S(=O)(=O)c3ccc(OC(F)(F)F)cc3)C[C@@H]2C)cn1` [Example 21, (2S)-2-Methyl-1-[(6-methyl-3-pyridinyl)carbonyl]-4-({4-[(trifluoromethyl)oxy]phenyl}sulfonyl)piperazine], the IC50 is ≥ 31.6 µM.

Turning to `Cc1ccc(C(=O)N2CCN(S(=O)(=O)c3ccc(OC(F)F)cc3)C[C@@H]2C)cn1` [Example 22, (2S)-4-({4-[(Difluoromethyl)oxy]phenyl}sulfonyl)-2-methyl-1-[(6-methyl-3-pyridinyl)carbonyl]piperazine], the IC50 was ≥ 31.6 µM.

As for `Cc1ccc(C(=O)N2CCN(S(=O)(=O)c3ccc(OC(F)(F)F)cc3)CC2)cn1` [Example 23, 1-[(6-Methyl-3-pyridinyl)carbonyl]-4-({4-[(trifluoromethyl)oxy]phenyl}sulfonyl)piperazine], the IC50 was ≥ 31.6 µM.

Consider `Cc1nc(Cl)ccc1C(=O)N1CCN(S(=O)(=O)c2ccc(C(F)(F)F)cc2)C[C@@H]1C` [Example 24, (2S)-1-[(6-Chloro-2-methyl-3-pyridinyl)carbonyl]-2-methyl-4-{[4-(trifluoromethyl)phenyl]sulfonyl}piperazine], for which the IC50 was ≥ 10 µM.

The values above are taken from patent US8536183B2, “3-pyridylcarbonyl-piperazinylsulfonyl derivatives” (Convergence Pharmaceuticals Limited, priority 2008, dated 2013).
